This note sets out measurements from ChEMBL document CHEMBL4311997, “Discovery of a potent histone deacetylase (HDAC) 3/6 selective dual inhibitor” (Eur J Med Chem, 2019).

pEC50, pIC50: −log10 of the molar value. Active and inactive are the calls of the source. The rule behind the calls is not given here.

For test [1], the target named is Histone deacetylase 1/2/3 (Homo sapiens, UniProt Q13547+O15379+Q92769). The test is described as follows: Inhibition of HDAC1/2/3 in human KMS-12-BM cells assessed as increase in Ac-H3 level at 2 to 10 uM incubated for 24 hrs by Western blot analysis. It counts as cell-based. In general terms: Immunoblotting shows a protein as a band on a membrane.
Test [2] deals with KMS-12-BM. Nature of the test: Effect on human KMS-12-BM cells assessed as inhibition in H3K9Me2 level at 2 to 10 uM incubated for 24 hrs by Western blot analysis. Type of test: functional, cell-based.
Test [3] relates to Plasmodium falciparum. Nature of the test: microbe, parasite or virus in culture. As to conditions: 3D7, 48 h. Type of test: functional, organism-based.
Description: Antimalarial activity against ring stage Plasmodium falciparum 3D7 incubated for 48 hrs by Hoechst 33342 staining based fluorescence based assay
In test [4] the test system is MCF7. The test is described as follows: Antiproliferative activity against human MCF7 cells incubated for 72 hrs by MTT assay. Type of test: functional, cell-based. As to conditions: MCF7, 72 h. A general note: Formazan colour is commonly taken as a measure of viable cells.
Test [5] has as its system MDA-MB-231. The test is described as follows: Antiproliferative activity against human MDA-MB-231 cells incubated for 72 hrs by MTT assay. Type of test: functional, cell-based. To be noted: MDA-MB-231, 72 h.
The subject of test [6] is OPM-2. The test is described as follows: Antiproliferative activity against human OPM2 cells incubated for 48 hrs by CellTiter-Glo luminescent cell viability assay. To be noted: OPM-2, 48 h. Type of test: functional, cell-based.
In test [7] the test system is Plasmodium falciparum. The test is described as follows: microbe, parasite or virus in culture. Type of test: functional, organism-based. To be noted: K1, 48 h.
Description: Antimalarial activity against ring stage Plasmodium falciparum K1 incubated for 48 hrs by Hoechst 33342 staining based fluorescence based assay
In test [8] the target is T1, Protein deacetylase HDAC6 (Homo sapiens, UniProt Q9UBN7).
T1 sequence (Q9UBN7 whole entry): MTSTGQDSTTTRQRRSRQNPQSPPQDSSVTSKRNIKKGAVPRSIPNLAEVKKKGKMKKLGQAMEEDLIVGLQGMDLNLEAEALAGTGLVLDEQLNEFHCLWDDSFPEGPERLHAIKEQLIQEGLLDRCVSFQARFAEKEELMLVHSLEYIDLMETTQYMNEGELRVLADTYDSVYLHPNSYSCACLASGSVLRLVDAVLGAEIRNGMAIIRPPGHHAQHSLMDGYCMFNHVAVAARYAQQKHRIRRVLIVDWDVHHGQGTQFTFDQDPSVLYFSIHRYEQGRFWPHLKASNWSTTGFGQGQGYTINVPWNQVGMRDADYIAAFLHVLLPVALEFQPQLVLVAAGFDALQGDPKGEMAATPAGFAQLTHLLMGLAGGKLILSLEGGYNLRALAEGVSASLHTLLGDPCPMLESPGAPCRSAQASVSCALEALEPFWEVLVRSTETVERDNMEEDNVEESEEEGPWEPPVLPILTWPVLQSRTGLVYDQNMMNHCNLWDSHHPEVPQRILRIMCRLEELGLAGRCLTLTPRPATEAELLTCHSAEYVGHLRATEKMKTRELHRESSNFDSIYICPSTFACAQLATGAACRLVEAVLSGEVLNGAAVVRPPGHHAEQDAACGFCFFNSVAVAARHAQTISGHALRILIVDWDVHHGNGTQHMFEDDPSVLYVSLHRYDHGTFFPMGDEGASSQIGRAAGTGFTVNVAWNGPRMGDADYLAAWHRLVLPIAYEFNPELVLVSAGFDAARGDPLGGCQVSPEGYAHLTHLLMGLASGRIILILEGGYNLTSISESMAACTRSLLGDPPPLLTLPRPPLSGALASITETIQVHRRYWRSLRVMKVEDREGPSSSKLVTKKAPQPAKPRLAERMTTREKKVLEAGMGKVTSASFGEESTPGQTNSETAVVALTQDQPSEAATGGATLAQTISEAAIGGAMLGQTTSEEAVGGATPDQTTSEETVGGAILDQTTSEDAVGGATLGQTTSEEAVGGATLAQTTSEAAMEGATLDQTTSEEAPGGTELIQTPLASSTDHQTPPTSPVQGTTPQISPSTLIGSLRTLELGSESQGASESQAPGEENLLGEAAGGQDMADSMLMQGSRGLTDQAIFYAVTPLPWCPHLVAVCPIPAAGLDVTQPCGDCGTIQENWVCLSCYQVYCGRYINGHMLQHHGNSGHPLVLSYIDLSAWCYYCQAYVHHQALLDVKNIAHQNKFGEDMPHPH
Nature of the test: Inhibition of human HDAC6 using Arg-His-Lys-Lys (Ac) as substrate incubated for 2 hrs by fluorescence assay.

In test [9] the target is Histone deacetylase 1 (Homo sapiens, UniProt Q13547).
Chain of Histone deacetylase 1 (Q13547 whole entry): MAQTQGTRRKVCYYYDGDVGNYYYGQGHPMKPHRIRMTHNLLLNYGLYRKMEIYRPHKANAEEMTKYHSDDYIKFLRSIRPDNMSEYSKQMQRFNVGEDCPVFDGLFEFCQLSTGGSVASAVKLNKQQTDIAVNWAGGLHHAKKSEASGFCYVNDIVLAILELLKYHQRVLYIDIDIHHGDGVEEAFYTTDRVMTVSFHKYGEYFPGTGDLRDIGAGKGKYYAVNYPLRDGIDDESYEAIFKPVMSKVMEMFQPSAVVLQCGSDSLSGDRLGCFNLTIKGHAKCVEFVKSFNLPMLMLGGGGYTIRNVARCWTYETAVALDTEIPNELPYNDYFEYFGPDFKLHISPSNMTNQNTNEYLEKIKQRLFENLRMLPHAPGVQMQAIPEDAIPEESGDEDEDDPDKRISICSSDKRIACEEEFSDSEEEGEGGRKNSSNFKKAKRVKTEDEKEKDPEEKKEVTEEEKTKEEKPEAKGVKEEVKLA
Description: Inhibition of human HDAC1 using Arg-His-Lys-Lys (Ac) as substrate incubated for 2 hrs by fluorescence assay
Test [10] can be described thus: Selectivity index, ratio of EC50 for human MDA-MB-231 cells to IC50 for ring stage Plasmodium falciparum 3D7. It counts as functional. Also on record: reference not given here.
Test [11] can be described thus: Selectivity index, ratio of EC50 for human MDA-MB-231 cells to IC50 for ring stage Plasmodium falciparum K1. It counts as functional. Also on record: reference not given here.
Test [12] deals with MDA-MB-231. Nature of the test: Induction of apoptosis in human MDA-MB-231 cells assessed as necrotic cells at 1 uM incubated for 48 hrs by Annexin V-FITC/PI staining by flow cytometric analysis (reference value: 15%). It counts as functional. For orientation: A flow cytometer gives signals particle by particle.
The test system of test [13] is MDA-MB-231. Nature of the test: Induction of apoptosis in human MDA-MB-231 cells assessed as late apoptotic cells at 1 uM incubated for 48 hrs by Annexin V-FITC/PI staining by flow cytometric analysis (reference value: 3%). Type of test: functional.
In test [14] the test system is MDA-MB-231. Nature of the test: Induction of apoptosis in human MDA-MB-231 cells assessed as viable cells at 1 uM incubated for 48 hrs by Annexin V-FITC/PI staining by flow cytometric analysis (reference value: 77%). It counts as functional. As to conditions: MDA-MB-231, 48 h, read-out: Activity.
In test [15] the test system is MDA-MB-231. The test is described as follows: Induction of apoptosis in human MDA-MB-231 cells assessed as early apoptotic cells at 1 uM incubated for 48 hrs by Annexin V-FITC/PI staining by flow cytometric analysis (reference value: 5%). It counts as functional.
Test [16] addresses Protein deacetylase HDAC6 (Homo sapiens) (UniProt Q9UBN7). Nature of the test: Potency index, ratio of IC50 for vorinostat to IC50 for test compound for human HDAC6.

As a reminder, the pIC50 is the IC50 on a negative log10 scale, so that one unit is a factor of ten. Broadly, the pEC50 is −log10 of the EC50, conventionally taken in molar units. Regarding `COc1cc2nc(N3CCCN(C)CC3)nc(NC3CCN(Cc4ccccc4)CC3)c2cc1OC`, in [1], the inhibition result is “inactive”. For the same compound, the result in test [2] was Active. In [3], this compound had a pIC50 of 6.82. Moreover, the figures for the pEC50 in [4] and in [5] were 5.48 and 5.54, respectively.

Consider `O=C(CCCCCCC(=O)Nc1ccccc1)NO` [VORINOSTAT], for which, in [6], the pEC50 was 5.54.

With `COc1cc2nc(Nc3ccc(NC(=O)CCCCCCC(=O)NO)cc3)nc(NC3CCN(Cc4ccccc4Cl)CC3)c2cc1OC`, the negative logarithm of the IC50 (pIC50) in [7] is 6.31; in test [8] it was 8.04; in test [9], 5.47; in test [3], 7.02. In addition, the pEC50 in [4] was 5.31; in test [5], 5.39. In addition, the “Selectivity Index” value is reported as 43 in [10] and 8 in test [11].

For `COc1cc2nc(N3CCN(C(=O)CCCCCCC(=O)NO)CC3)nc(NC3CCN(Cc4ccccc4)CC3)c2cc1OC`, the results for the negative-log IC50 (pIC50) in test [8] and in test [9] were 7.45 and 5.51, respectively. Also, the pEC50 in [4] is 5.11; in test [5], 5.15.

For the compound `COc1cccc2c1C(=O)c1c(O)c3c(c(O)c1C2=O)C[C@@](O)(C(=O)CO)C[C@@H]3O[C@H]1C[C@H](N)[C@H](O)[C@H](C)O1` [DOXORUBICIN], the Activity in test [12] stood at 6%; in test [13] it was 92%; in test [15], 1%. Further, the viability at 1 µM in test [14] was 1%.

On to `O=C(CCCCCCC(=O)Nc1ccc(Nc2nc(NC3CCN(Cc4ccccc4)CC3)c3sccc3n2)cc1)NO`, for which the negative logarithm of the IC50 (pIC50) in test [8] was 8.23; in [9], 6.63. Further, the pEC50 in [4] and in test [5] was 5.54 throughout.

As to `COc1cc2nc(Nc3ccc(NC(=O)CCCCCCC(=O)NO)cc3)nc(NC3CCN(Cc4ccc(F)cc4)CC3)c2cc1OC`, the pIC50 in test [7] is 6.53; in [8], 8.10; in [9], 5.67; in [3], 6.95. Further, the pEC50 in test [4] and in [5] was 5.31 each time. Moreover, the entries for the “Selectivity Index” value in test [10] and in test [11] were 44 and 17, respectively.

Consider `COc1cc2nc(Nc3ccc(NC(=O)CCCCCCC(=O)NO)cc3)nc(NC3CCN(Cc4ccccc4)CC3)c2cc1OC`, for which the negative logarithm of the IC50 (pIC50) was 6.06 in [7], > 9.30 in [8], 5.99 in test [9] and 6.70 in [3]. Further, the Ratio IC50 in test [16] was found to be 40. In addition, the pEC50 was 4.92 in test [4] and 5.29 in test [5]. Moreover, the “Selectivity Index” value was found to be 26 in [10] and 6 in test [11].
